Laboratory results as given in US20240315993A1, “ANTIPARASITIC COMPOUNDS” (Intervet Inc., priority 2021, published 2024).

Experiments:
[1] = test system: Mobile stages of sea lice (pre-adults, adults of Caligus rogercresseyi); test: Adult Caligus rogercresseyi sea lice contact assay
Experimental: Mobile stages of sea lice (i.e., pre-adults, adults of Caligus rogercresseyi) were exposed to seawater spiked with declining concentrations of a test compound (dissolved in a PEG sea-water mixture). Sea lice inhibition (% of dead+damaged sea lice) was assessed after approximately 1, 24 and 48 hours of continuous exposure in comparison to a negative (solvent) and untreated control group.

[2] = test system: mobile sea lice stages of Lepeophtheirus salmonis-isolates with known resistance profiles; test: Sea lice resistance assay
Experimental: A sea lice resistance assay was carried out using mobile sea lice stages (i.e., pre-adults, adults) of several Lepeophtheirus salmonis-isolates with known resistance profiles (i.e.: fully susceptible, resistant to azametiphos (OP), emamectin benzoate (ML), deltamethrin (SP). Sea lice were exposed to seawater spiked with declining concentrations of a test compound (dissolved in a PEG300/sea-water mixture). Sea lice inhibition (% of dead+damaged sea lice) was assessed after approximately 1, 24 and 48 hour/s of continuous exposure in comparison to a negative (solvent) control group.

O=C(Nc1ncc(F)cc1F)c1cc(NC(=O)[C@H]2[C@H](c3cc(Cl)cc(Cl)c3)C2(Cl)Cl)ccc1Cl [Compound 453]
EC50 ([1]; after 24 hours): 0.072 ppb | EC50 ([1]; after 48 hours): 0.035 ppb | effectiveness against sensitive isolate and multi-resistant isolate [2]: equally effective | EC50 ([2]; multi-resistant isolate, after 24 hours): 1.96 ppb | EC50 ([2]; multi-resistant isolate, after 48 hours): 0.64 ppb | EC50 ([2]; sensitive isolate, after 24 hours): 1.20 ppb | EC50 ([2]; sensitive isolate, after 48 hours): 0.29 ppb
